# Active and inactive are the calls of the source.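 How the source made its calls: active means at least 15% inhibition at the top concentration together with an EC50 under 10 microM; inactive means the rest.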
# Assay: potency against LAMP-1 externalization in TALL-104 – TALL-104 cells, flow cytometry, CherryPick01, dose response (AID 652101);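 further: 0% = stimulated DMSO control and 100% = unstimulated control wells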
# Conditions: TALL-104 lytic granule exocytosis, LAMP-1 flow cytometry; at 15.1 µM (top of the series); stimulated with 1 µM thapsigargin, 50 nM PMA
row,SMILES,inhibition
1,CCC(=C(c1ccc(OC)cc1)c1ccc(OC)cc1)c1cn(CC(O)CN2CCN(C)CC2)c2ccccc12 (centres undefined),87.4% (inactive)
2,CCOCCCNC(=S)N1CCCN(c2nc3c(C)c(C)ccc3cc2C#N)CC1,83.8% (inactive)
3,O=C(Nc1nc2ccc(SC(F)F)cc2s1)c1ccc(NS(=O)(=O)c2ccc(F)c(F)c2)cc1,105% (inactive)
4,Cn1sc(=O)c2cc(S(=O)(=O)NC3CC3)ccc21,103% (inactive)
5,CCN1CCN(Cc2ccc(NC(=O)c3cc(NC(=O)C(=O)c4c[nH]c5ccccc45)cc(OC)c3)cc2C(F)(F)F)CC1,81.8% (inactive)
6,O=C(COC(=O)[C@H](Cc1c[nH]c2ccccc12)NC(=O)c1ccc(Cl)cc1)Nc1ccc2c(c1)OCO2,108% (inactive)
7,N#Cc1ccc(NC(=O)Nc2ccc(Oc3ccc(NC(=O)Nc4ccc(C#N)cc4)cc3)cc2)cc1,33.8% (inactive)
8,Oc1ccccc1Nc1nc(NCc2ccccc2)c2ccccc2n1,90.6% (inactive)
9,CCc1ccc(CNC(=O)C2CCCN(c3nnc(C)c4c(C)n(-c5ccccc5)nc34)C2)cc1 (centres undefined),97.2% (inactive)
10,COc1ccc([N+](=O)[O-])cc1Nc1c2ccccc2nc2ccccc12,79.8% (inactive)
11,Cc1cc(F)ccc1S(=O)(=O)Nc1ccccc1C(=O)Nc1ccccc1-c1nc2ccccc2[nH]1,106% (inactive)
12,CCOC(=O)c1ccc(NC(=O)c2ccc(C)c(S(=O)(=O)N3CCOCC3)c2)cc1,102% (inactive)
13,CC(=O)Nc1cc(-c2ccccc2F)cn2c(-c3ccccc3)cnc12,106% (inactive)
14,Cc1cc(C)c2sc(N(CCCN(C)C)C(=O)c3ccc(S(=O)(=O)N4CCc5ccccc5C4)cc3)nc2c1,-21.4% (inactive)
15,COC(=O)c1c(NC(=O)c2ccc(C(=O)c3ccccc3)cc2)sc2c1CC(C)(C)NC2(C)C,90.2% (inactive)
16,Cc1ccc(C(=O)N/C(=C\c2ccc(-c3ccc(Br)cc3)o2)C(=O)NCCCN(C)C)cc1,-10.6% (inactive)
17,CCOC(=O)c1nnc(-c2ccccc2)nc1Sc1ccccc1Cl,66.7% (inactive)

row,SMILES,inhibition
1,O=C(CCN1CCc2ccccc2CC1)c1ccc2c(c1)OCCO2,73.6% (inactive)
2,CCc1ccc2nc(N(CCCN(C)C)C(=O)c3ccc(S(=O)(=O)N4CCc5ccccc5C4)cc3)sc2c1,81.8% (inactive)
3,O=c1c(Cl)c2oc3ccccc3nc-2c2ccccc12,-0.07% (inactive)
4,COc1cc(-c2coc3c(C(=O)NCc4ccc(OC)c(OC)c4)cccc23)ccc1O,104% (inactive)
5,O=C(Nc1nc2ccccc2n1CCN1CCOCC1)c1ccc(COc2ccccc2Br)o1,102% (inactive)
6,COC(=O)[C@]12CCCCC=C1N(Cc1cccc3ccccc13)C(=O)[C@H](CC(=O)NCc1ccc(OC)c(OC)c1)C2,108% (inactive)
7,CN(c1ccccc1)S(=O)(=O)c1cccc(C(=O)NCCc2c[nH]c3ccccc23)c1,42.1% (inactive)
8,CCc1nc2ccc(C(=O)NC3CCN(Cc4ccccc4)CC3)cn2c1N(C)Cc1cc2ccccc2s1,101% (inactive)
9,COC(=O)c1ccc(N2CCN(C)CC2)c(NC(=O)c2sc3ccccc3c2Cl)c1,70.3% (inactive)
10,CCCCC[C@@H](C)N1C[C@H](COCc2ccccc2)Oc2cc(N3CC[C@@H](N(C)C)C3)ccc2S1(=O)=O,65% (inactive)
11,COc1ccc2[nH]c3c(N4CCc5ccccc5C4)ncnc3c2c1,89.2% (inactive)
12,Oc1ccccc1Nc1nc(NCc2ccco2)c2ccccc2n1,107% (inactive)
13,COc1ccc(Cl)c(-c2cc(C(=O)NCc3ccc(C(F)(F)F)cc3)[nH]n2)c1,103% (inactive)
14,CCOC(=O)c1cnc2ccc(OCC)cc2c1N(C)Cc1ccccc1,69.7% (inactive)
15,OC1(c2cccc(C(F)(F)F)c2)CCN(c2ncnc3c2[nH]c2ccc(F)cc23)CC1,107% (inactive)
16,COc1cccc(-c2cnc3c(NC=O)cc(-c4ccccc4)cn23)c1,101% (inactive)
17,O=[N+]([O-])c1ccc2nc(/C=C/c3ccc(Cl)cc3)[nH]c2c1,98.6% (inactive)
